# According to BindingDB's records for patent US11583538 (Venenum Biodesign, 2023):
# pIC50: −log10 of the molar value.
# Target: T1, Three-prime repair exonuclease 1 (Homo sapiens, UniProt Q9NSU2)
# T1 sequence (Q9NSU2 whole entry): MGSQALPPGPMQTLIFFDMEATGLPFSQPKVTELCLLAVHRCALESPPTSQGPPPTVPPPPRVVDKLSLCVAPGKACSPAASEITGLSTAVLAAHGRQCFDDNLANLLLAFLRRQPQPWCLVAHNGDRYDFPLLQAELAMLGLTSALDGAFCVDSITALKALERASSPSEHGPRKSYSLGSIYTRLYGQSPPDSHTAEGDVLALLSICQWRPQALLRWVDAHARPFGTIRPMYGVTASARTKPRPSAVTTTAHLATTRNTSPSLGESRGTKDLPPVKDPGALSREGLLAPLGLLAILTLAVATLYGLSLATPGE
# Assay: TREX1 Exonuclease Assay
# Description: For human TREX1, the nucleotide sequence of the gene construct was codon optimized for expression in the bacterial host. The sequence was incorporated into the pMAL-c5e vector (NEB) downstream of a solubility-promoting MBP (maltose binding protein) fusion partner. The fusion protein product was expressed in E. coli strain BL21 (DE3) (Millipore) and purified in a series of chromatographic steps. Initial steps were conducted using a dextrin sepharose affinity column followed by a Q-sepharose ion exchange column (both GE Healthcare). After the second column the MBP partner was removed by incubation with enterokinase (NEB). Further purification was carried out with the second application of a Q-sepharose column followed by a Superdex 75 (GE Healthcare) size exclusion column. Finally, a heparin sepharose column (GE Healthcare) was applied to remove contaminating nucleotides. […] Next, 4 μL of human TREX1 (0.5 nM), or murine TREX1 (1 nM), diluted in assay buffer (20 mM Tris pH 7.5, 5 mM MgCl, 100 μg/mL BSA, 0.002% Triton X-100, 2 mM DTT), was added to the assay plate. After incubating for 30 minutes, 4 μL of labeled DNA oligonucleotide (500 nM) in assay buffer was added to initiate TREX1 exonuclease activity. The reaction was allowed to proceed for 45 minutes at room temperature prior to the addition of 4 μL of 150 mM EDTA to halt TREX1 activity.
row,SMILES,pIC50
1,"N[C@@H]1C[C@H]2C(=O)N([C@@H](CCC(=O)O)C(=O)NCc3ccc(Cl)c(Cl)c3)CCC(CCc3ccccc3)N2C1 (stereo not given in full) [US11583538, Example 29]",> 6.00
2,"N[C@@H]1C[C@H]2C(=O)N([C@H](CCC(=O)O)C(=O)NCc3ccc(Cl)c(Cl)c3)CCC(COc3cccc(F)c3)N2C1 (stereo not given in full) [US11583538, Example 77]",> 6.00
3,"N[C@@H]1C[C@H]2C(=O)N([C@H](CCC(=O)O)C(=O)NCc3ccc(Cl)c(Cl)c3)CCC(COc3ccccc3F)N2C1 (stereo not given in full) [US11583538, Example 79]",> 6.00
4,"CC(C)C[C@H](CNS(=O)(=O)c1ccc(Cl)c(Cl)c1)N1CCC(CCc2ccccc2)N2C[C@H](N)C[C@H]2C1=O (stereo not given in full) [US11583538, Example 81]",> 6.00
5,"N[C@@H]1C[C@H]2C(=O)N([C@@H]3CCCN(S(=O)(=O)c4ccc(Cl)c(Cl)c4)C3)CCC(CCc3ccccc3)N2C1 (stereo not given in full) [US11583538, Example 83]",> 6.00
6,"COC(=O)CC[C@H](C(=O)NCc1ccc(Cl)c(Cl)c1)N1CCC(COc2cccc(F)c2)N2C[C@H](N)C[C@H]2C1=O (stereo not given in full) [US11583538, Example 90]",> 6.00
7,"COC(=O)CC[C@H](C(=O)NCc1ccc(Cl)c(Cl)c1)N1CCC(COc2ccc(F)cc2)N2C[C@H](N)C[C@H]2C1=O (stereo not given in full) [US11583538, Example 91]",> 6.00
8,"CCOC(=O)CC[C@H](C(=O)NCc1ccc(Cl)c(Cl)c1F)N1CCC(CCc2ccccc2)N2C[C@H](N)C[C@H]2C1=O (stereo not given in full) [US11583538, Example 93]",> 6.00
9,"CCOC(=O)CC[C@H](C(=O)NCc1ccc(Cl)c(Cl)n1)N1CCC(CCc2ccccc2)N2C[C@H](N)C[C@H]2C1=O (stereo not given in full) [US11583538, Example 95]",> 6.00
10,"N[C@@H]1C[C@H]2C(=O)N([C@H](CCC(=O)NO)C(=O)NCc3ccc(Cl)c(Cl)c3)CCC(COc3cccc(F)c3)N2C1 (stereo not given in full) [US11583538, Example 114]",> 6.00
11,"N[C@@H]1C[C@H]2C(=O)N([C@H](CSc3ccccc3O)C(=O)NCc3ccc(Cl)c(Cl)c3)CCC(CCc3ccccc3)N2C1 (stereo not given in full) [US11583538, Example 123]",> 6.00
12,"N[C@@H]1C[C@H]2C(=O)N([C@H](CS(=O)(=O)c3ccccc3O)C(=O)NCc3ccc(Cl)c(Cl)c3)CCC(CCc3ccccc3)N2C1 (stereo not given in full) [US11583538, Example 124]",> 6.00
13,"CC(C)C[C@H](C(=O)NCc1ccc(Cl)c(Cl)c1)N1CCC(C[S+]([O-])c2ccccc2)N2C[C@H](N)C[C@H]2C1=O (stereo not given in full) [US11583538, Example 125A]",> 6.00
14,"N[C@@H]1C[C@H]2C(=O)N([C@H](CCNC(=O)C3CC3)C(=O)NCc3ccc(Cl)c(Cl)c3)CCC(CCc3ccccc3)N2C1 (stereo not given in full) [US11583538, Example 130]",> 6.00
15,"N[C@@H]1C[C@H]2C(=O)N([C@H](CCC(=O)O)C(=O)NCc3cc(Cl)c(Cl)c[n+]3[O-])CCC(CCc3ccccc3)N2C1 (stereo not given in full) [US11583538, Example 134]",> 6.00
